The values that follow come from patent US9334290B2, “Substituted tetrahydrocarbazole and carbazole carboxamide compounds” (Bristol-Myers Squibb Company, priority 2013, dated 2016).

Read-outs that look alike come from different tables or passages of the source.

The target in experiment [1] is Jak2 tyrosine kinase (Homo sapiens (Human), UniProt O60674). Nature of the experiment: Jak2 tyrosine kinase assay. The class given is biochemical.
Experiment [2] deals with CD69 expression on B cells in human whole blood. Nature of the experiment: Whole blood assay of BCR-stimulated CD69 expression on B cells. The class given is cell-based. The conditions noted are these: BCR-stimulated, read-out: CD69 IC50 values.
Experiment [3] has as its target human recombinant Btk (Homo sapiens (Human), UniProt Q06187). The experiment in a line: Human Recombinant Btk enzyme assay. The class given is biochemical.

Sequence of human recombinant Btk (Q06187 whole entry): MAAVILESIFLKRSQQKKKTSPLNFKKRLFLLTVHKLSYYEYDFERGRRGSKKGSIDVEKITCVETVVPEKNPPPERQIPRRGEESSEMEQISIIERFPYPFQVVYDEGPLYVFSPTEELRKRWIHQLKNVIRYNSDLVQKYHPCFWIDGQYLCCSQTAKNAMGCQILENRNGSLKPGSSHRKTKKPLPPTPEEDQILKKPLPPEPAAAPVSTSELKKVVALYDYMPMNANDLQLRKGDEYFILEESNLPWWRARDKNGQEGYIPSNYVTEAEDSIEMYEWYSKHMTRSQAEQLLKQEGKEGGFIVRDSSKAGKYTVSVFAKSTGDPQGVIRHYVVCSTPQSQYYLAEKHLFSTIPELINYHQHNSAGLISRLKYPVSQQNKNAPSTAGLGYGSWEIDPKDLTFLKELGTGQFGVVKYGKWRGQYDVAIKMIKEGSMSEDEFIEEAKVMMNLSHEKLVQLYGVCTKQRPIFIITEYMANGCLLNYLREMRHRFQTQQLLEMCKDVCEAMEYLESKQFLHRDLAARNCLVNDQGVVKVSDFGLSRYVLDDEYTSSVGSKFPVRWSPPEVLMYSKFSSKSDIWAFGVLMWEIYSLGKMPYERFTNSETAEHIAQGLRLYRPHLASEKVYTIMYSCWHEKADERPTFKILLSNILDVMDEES
Sequence of Jak2 tyrosine kinase (O60674 whole entry): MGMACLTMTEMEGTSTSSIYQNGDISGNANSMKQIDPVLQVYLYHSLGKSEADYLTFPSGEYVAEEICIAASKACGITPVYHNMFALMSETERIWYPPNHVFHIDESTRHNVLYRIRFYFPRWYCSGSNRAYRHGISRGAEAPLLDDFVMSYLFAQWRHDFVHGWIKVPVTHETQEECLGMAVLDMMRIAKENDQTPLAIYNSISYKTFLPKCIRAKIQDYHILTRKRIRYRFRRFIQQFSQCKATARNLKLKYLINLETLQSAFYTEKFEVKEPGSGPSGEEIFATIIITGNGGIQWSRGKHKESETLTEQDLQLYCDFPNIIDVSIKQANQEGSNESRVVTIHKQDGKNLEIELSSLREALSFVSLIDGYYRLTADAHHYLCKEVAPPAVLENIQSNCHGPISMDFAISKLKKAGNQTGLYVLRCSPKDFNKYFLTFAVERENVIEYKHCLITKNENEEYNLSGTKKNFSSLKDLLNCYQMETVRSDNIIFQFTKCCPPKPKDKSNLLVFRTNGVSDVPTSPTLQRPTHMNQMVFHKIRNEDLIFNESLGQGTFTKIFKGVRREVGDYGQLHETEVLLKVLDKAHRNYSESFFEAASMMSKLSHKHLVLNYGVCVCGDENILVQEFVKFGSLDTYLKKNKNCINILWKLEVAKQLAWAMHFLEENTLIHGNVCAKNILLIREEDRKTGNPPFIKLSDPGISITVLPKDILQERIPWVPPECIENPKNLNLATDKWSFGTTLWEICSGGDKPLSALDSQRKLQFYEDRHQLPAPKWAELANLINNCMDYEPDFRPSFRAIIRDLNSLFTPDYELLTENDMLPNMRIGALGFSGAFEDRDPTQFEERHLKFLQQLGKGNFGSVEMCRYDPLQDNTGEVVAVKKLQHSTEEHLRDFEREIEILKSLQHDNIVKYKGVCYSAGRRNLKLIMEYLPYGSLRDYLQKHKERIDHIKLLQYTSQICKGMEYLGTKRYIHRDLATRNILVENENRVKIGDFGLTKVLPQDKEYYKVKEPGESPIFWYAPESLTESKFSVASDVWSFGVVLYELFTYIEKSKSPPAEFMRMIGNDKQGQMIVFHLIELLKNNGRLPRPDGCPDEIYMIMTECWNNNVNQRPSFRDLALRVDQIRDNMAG

In the case of `Cc1c(-c2c(F)cc(C(N)=O)c3[nH]c4c(c23)CC[C@@H](C(C)(C)O)C4)cccc1-n1c(=O)c2cccc(F)c2n(C)c1=O` (atropisomer, axis not shown) [Example 27, 6-Fluoro-5-(R)-(3-(S)-(8-fluoro-1-methyl-2,4-dioxo-1,2-dihydroquinazolin-3(4H)-yl)-2-methylphenyl)-2-(R)-(2-hydroxypropan-2-yl)-2,3,4,9-tetrahydro-1H-carbazole-8-carboxamide], the IC50 in experiment [1] is more than 2000 nM; in experiment [2], 150 nM; in experiment [3] (read-out: Btk IC50 value), 2.2 nM.
On to `Cc1c(-c2c(F)cc(C(N)=O)c3[nH]c4c(c23)CC[C@H](C(C)(C)O)C4)cccc1-n1c(=O)c2cccc(F)c2n(C)c1=O` (atropisomer, axis not shown) [Example 28, 6-Fluoro-5-(R)-(3-(S)-(8-fluoro-1-methyl-2,4-dioxo-1,2-dihydroquinazolin-3(4H)-yl)-2-methylphenyl)-2-(S)-(2-hydroxypropan-2-yl)-2,3,4,9-tetrahydro-1H-carbazole-8-carboxamide], for which the IC50 stood at 32000 nM in experiment [1] and 0.54 nM in experiment [3] (read-out: Btk IC50 value). Moreover, the “Ratio of Jak2/Btk IC50 values” in experiment [1] (selectivity of Btk over Jak2) is on record as 59000.
In the case of `COc1ccc2c(=O)n(-c3cccc(-c4c(Cl)cc(C(N)=O)c5[nH]c6cc(C(C)(C)O)ccc6c45)c3C)c(=O)n(C)c2c1` (single isomer, unassigned) [Example 5], the IC50 is more than 2000 nM in experiment [1]; 170 nM in experiment [2] (Homo sapiens, B-cell); 2.1 nM in experiment [3] (read-out: Btk IC50 value). The “Ratio of Jak2/Btk IC50 values” in experiment [1] (selectivity of Btk over Jak2) is given as more than 950.
Take `COc1ccc2c(=O)n(-c3cccc(-c4c(Cl)cc(C(N)=O)c5[nH]c6cc(C(C)(C)O)ccc6c45)c3C)c(=O)n(C)c2c1` (single isomer, unassigned) [Example 6]: the figures for the IC50 in experiment [1], in experiment [2] and in experiment [3] (read-out: Btk IC50 value) were 1500 nM, 100 nM and 1.1 nM, respectively. In experiment [1] (selectivity of Btk over Jak2), the “Ratio of Jak2/Btk IC50 values” is 1400.
With `Cc1c(-c2c(Cl)cc(C(N)=O)c3[nH]c4cc(C(C)(C)O)ccc4c23)cccc1-n1c(=O)[nH]c2c(F)cccc2c1=O` (single isomer, unassigned) [Example 14], the IC50 in experiment [2] (Homo sapiens, B-cell) turned out to be 20 nM; in experiment [3] (read-out: Btk IC50 value), 1.2 nM.
Take `Cc1c(-c2c(C#N)cc(C(N)=O)c3[nH]c4cc(C(C)(C)O)ccc4c23)cccc1-n1c(=O)c2cccc(F)c2n(C)c1=O` (single isomer, unassigned) [Example 15]: the half-inhibitory concentration (IC50) was determined as 2400 nM in experiment [1]; 170 nM in experiment [2] (Homo sapiens, B-cell); 1 nM in experiment [3] (read-out: Btk IC50 value). The “Ratio of Jak2/Btk IC50 values” in experiment [1] (selectivity of Btk over Jak2) amounted to 2400.
As for `Cc1c(-c2c(C#N)cc(C(N)=O)c3[nH]c4cc(C(C)(C)O)ccc4c23)cccc1-n1c(=O)c2cccc(F)c2n(C)c1=O` (single isomer, unassigned) [Example 16], the values for the IC50 in experiment [1], in experiment [2] and in experiment [3] (read-out: Btk IC50 value) were 1900 nM, 120 nM and 0.27 nM, respectively.
Consider `Cc1c(-c2c(F)cc(C(N)=O)c3[nH]c4cc(C(C)(C)O)ccc4c23)cccc1-n1c(=O)cc2c(Cl)cccn2c1=O` (single isomer, unassigned) [Example 30], for which the IC50 amounted to 64 nM in experiment [2] (Homo sapiens, B-cell) and 0.22 nM in experiment [3] (read-out: Btk IC50 value).
Regarding `Cc1c(-c2c(F)cc(C(N)=O)c3[nH]c4cc(C(C)(C)O)ccc4c23)cccc1-n1c(=O)cc2c(Cl)cccn2c1=O` (single isomer, unassigned) [Example 31], the IC50 was 37 nM in experiment [2] and 0.19 nM in experiment [3] (read-out: Btk IC50 value).
`Cc1c(-c2c(Cl)cc(C(N)=O)c3[nH]c4cc(C(C)(C)O)ccc4c23)cccc1-n1c(=O)cc2c(F)cccn2c1=O` (single isomer, unassigned) [Example 35]: the IC50 in experiment [1] amounted to 800 nM; in experiment [2] (Homo sapiens, B-cell) it was 31 nM; in experiment [3] (read-out: Btk IC50 value) it was 0.25 nM. The “Ratio of Jak2/Btk IC50 values” in experiment [1] (selectivity of Btk over Jak2) was determined as 3200.
As to `Cc1c(-c2c(Cl)cc(C(N)=O)c3[nH]c4cc(C(C)(C)O)ccc4c23)cccc1-n1c(=O)cc2c(F)cccn2c1=O` (single isomer, unassigned) [Example 36], the IC50 in experiment [1] was 450 nM; in experiment [2] it was 28 nM; in experiment [3] (read-out: Btk IC50 value), 0.28 nM. Also, the “Ratio of Jak2/Btk IC50 values” in experiment [1] (selectivity of Btk over Jak2) was 1600.
In the same order, the values of `Cc1c(-c2c(Cl)cc(C(N)=O)c3[nH]c4cc(C(C)(C)O)ccc4c23)cccc1-n1c(=O)cc2sccn2c1=O` (single isomer, unassigned) [Example 38] are 300 nM, 53 nM, 0.34 nM and 880.
In the same order, the values of `Cc1c(-c2c(Cl)cc(C(N)=O)c3[nH]c4cc(C(C)(C)O)ccc4c23)cccc1-n1c(=O)cc2sccn2c1=O` (single isomer, unassigned) [Example 39] are 370 nM, 130 nM, 0.31 nM and 1200.
Regarding `Cc1c(-c2c(F)cc(C(N)=O)c3[nH]c4cc(C(C)(C)O)ccc4c23)cccc1-n1c(=O)cc2c(F)cccn2c1=O` (single isomer, unassigned) [Example 40], the IC50 came to 830 nM in experiment [1]; 19 nM in experiment [2] (Homo sapiens, B-cell); 0.46 nM in experiment [3] (read-out: Btk IC50 value). In experiment [1] (selectivity of Btk over Jak2), the “Ratio of Jak2/Btk IC50 values” is listed as 1800.
Turning to `Cc1c(-c2c(F)cc(C(N)=O)c3[nH]c4cc(C(C)(C)O)ccc4c23)cccc1-n1c(=O)cc2c(F)cccn2c1=O` (single isomer, unassigned) [Example 41], the half-inhibitory concentration (IC50) in experiment [1] was 800 nM; in experiment [2], 22 nM; in experiment [3] (read-out: Btk IC50 value), 0.2 nM. For the same molecule, the “Ratio of Jak2/Btk IC50 values” in experiment [1] (selectivity of Btk over Jak2) was found to be 4000.
For the molecule `Cc1c(-c2c(Cl)cc(C(N)=O)c3[nH]c4c(c23)CC[C@H](C(C)(C)O)C4)cccc1-n1c(=O)[nH]c2c(F)cc(F)cc2c1=O` (single isomer, unassigned) [Example 57], the IC50 in experiment [1] worked out at 270 nM; in experiment [3] (read-out: Btk IC50 value), 0.25 nM. For the same molecule, in experiment [1] (selectivity of Btk over Jak2), the “Ratio of Jak2/Btk IC50 values” is 1100.
The matching figures for `[2H]C([2H])([2H])n1c(=O)n(-c2cccc(-c3c(F)cc(C(N)=O)c4[nH]c5c(c34)CC[C@H](C(C)(C)O)C5)c2C)c(=O)c2cccc(F)c21` (single isomer, unassigned) [Example 62]: more than 2000 nM, 0.41 nM and more than 4900.
In the same order, the values of `Cc1c(-c2c(F)cc(C(N)=O)c3[nH]c4c(c23)CC[C@H](C(C)(C)O)C4)cccc1-n1c(=O)[nH]c2c(Cl)cccc2c1=O` (single isomer, unassigned) [Example 63] are 11000 nM, 0.45 nM and 24000.
On to `Cc1c(-c2c(F)cc(C(N)=O)c3[nH]c4c(c23)CC[C@@H](C(C)(C)O)C4)cccc1-n1c(=O)[nH]c2c(F)cccc2c1=O` (single isomer, unassigned) [Example 67], for which the IC50 in experiment [3] (read-out: Btk IC50 value) was found to be 0.49 nM.
For the molecule `Cc1c(-c2c(F)cc(C(N)=O)c3[nH]c4c(c23)CC[C@H](C(C)(C)O)C4)cccc1-n1c(=O)cc2c(F)cccn2c1=O` (single isomer, unassigned) [Example 68], the values for the IC50 in experiment [1] and in experiment [3] (read-out: Btk IC50 value) were 350 nM and 0.56 nM, respectively. Besides, the “Ratio of Jak2/Btk IC50 values” in experiment [1] (selectivity of Btk over Jak2) is given as 630.
Regarding `Cc1c(-c2c(F)cc(C(N)=O)c3[nH]c4c(c23)CC[C@H](C(C)(C)O)C4)cccc1-n1c(=O)cc2c(F)cccn2c1=O` (single isomer, unassigned) [Example 69], the IC50 in experiment [1] is 9500 nM; in experiment [2], 150 nM; in experiment [3] (read-out: Btk IC50 value), 0.84 nM. Also, in experiment [1] (selectivity of Btk over Jak2), the “Ratio of Jak2/Btk IC50 values” came to 11000.
Turning to `Cc1nc(C(N)=O)c2[nH]c3cc(C(C)(C)O)ccc3c2c1-c1cccc(-n2cnc3ccccc3c2=O)c1C` [Comparative Example 76, 7-(2-Hydroxypropan-2-yl)-3-methyl-4-(2-methyl-3-(4-oxoquinazolin-3(4H)-yl)phenyl)-9H-pyrido[3,4-b]indole-1-carboxamide, reference compound], the IC50 in experiment [1] is 200 nM; in experiment [3] (human recombinant Btk 1 nM, ATP 20 μM, read-out: Btk IC50), 6.9 nM; in experiment [3] (read-out: Btk IC50 value) it was 6.9 nM. Besides, the “Ratio of Jak2/Btk IC50 values” in experiment [1] (Jak2 IC50 divided by Btk IC50, larger value = more selective for Btk) is on record as 29; in experiment [1] (selectivity of Btk over Jak2), 29.
On to `Cc1c(-c2c(Cl)cc(C(N)=O)c3[nH]c4cc(C(C)(C)O)ccc4c23)cccc1-n1c(=O)[nH]c2c(F)cccc2c1=O` [Example 13, 3-Chloro-4-(3-(8-fluoro-2,4-dioxo-1,2-dihydroquinazolin-3(4H)-yl)-2-methylphenyl)-7-(2-hydroxypropan-2-yl)-9H-carbazole-1-carboxamide], for which the IC50 in experiment [2] (Homo sapiens, B-cell) turned out to be 140 nM; in experiment [3] (read-out: Btk IC50 value), 2.9 nM.
Regarding `Cc1c(-c2c(Cl)cc(C(N)=O)c3[nH]c4cc(C(C)(C)O)ccc4c23)cccc1-n1c(=O)cc2c(F)cccn2c1=O` [Example 34, 3-Chloro-4-(3-(5-fluoro-1,3-dioxo-1H-pyrido[1,2-c]pyrimidin-2(3H)-yl)-2-methylphenyl)-7-(2-hydroxypropan-2-yl)-9H-carbazole-1-carboxamide], the IC50 is 370 nM in experiment [1]; 98 nM in experiment [2] (Homo sapiens, B-cell); 0.85 nM in experiment [3] (read-out: Btk IC50 value). In addition, the “Ratio of Jak2/Btk IC50 values” in experiment [1] (selectivity of Btk over Jak2) came out at 440.
As for `COc1cccn2c(=O)n(-c3cccc(-c4c(Cl)cc(C(N)=O)c5[nH]c6cc(C(C)(C)O)ccc6c45)c3C)c(=O)cc12` [Example 37, 3-Chloro-7-(2-hydroxypropan-2-yl)-4-(3-(5-methoxy-1,3-dioxo-1H-pyrido[1,2-c]pyrimidin-2(3H)-yl)-2-methylphenyl)-9H-carbazole-1-carboxamide], the values for the IC50 in experiment [1] and in experiment [3] (read-out: Btk IC50 value) were 630 nM and 0.91 nM, respectively. For the same molecule, the “Ratio of Jak2/Btk IC50 values” in experiment [1] (selectivity of Btk over Jak2) turned out to be 690.
In the same order, the values of `Cc1c(-c2c(F)cc(C(N)=O)c3[nH]c4cc(CCO)ccc4c23)cccc1-n1c(=O)cc2c(F)cccn2c1=O` [Example 70] are 550 nM, 0.59 nM and 930.
